Patent US20240066065A1, “PLATELET DERIVATIVES FOR TREATING COAGULOPATHY” (Cellphire, Inc., priority 2019, published 2024)

What was measured:
whole blood = assay: T-TAS thrombus formation under flow, AR chip (collagen+TF), rivaroxaban-anticoagulated whole blood; format: cell-based, human
Description: (§1) In the Total Thrombus-formation Analysis System (T-TAS®, FUJIMORI KOGYO CO., LTD), the sample is forced through collagen-coated microchannels using mineral oil. Changes in pressure are used to assess thrombus formation. The Occlusion Start Time is time it takes to reach 10 kPa, and the Occlusion Time=time it takes to each Δ80 kPa using an AR chip (e.g., Zacros Item No, TC0101). According to the manufacturer, an AR chip can be used for analyzing the formation of a mixed white thrombus consisting chiefly of fibrin and activated platelets. It has a flow path (300 μm wide by 50 μm high) coated with collagen and tissue factors and can be used to analyze the clotting function and platelet function. In comparison, a PL chip can be used for analyzing the formation of a platelet thrombus consisting chiefly of activated platelets. A PL chip has a flow path coated with collagen only and can be used to analyze the platelet function.
Rivaroxaban (sometimes herein called Riv) dose-response in whole blood was measured using T-TAS®. An AR chip (Collagen+TF) was used. T-TAS® assays were performed according to Example 3. The donor platelets were used at 307k/μL.
Thrombosomes were prepared consistent with the procedures described in U.S. Pat. No. 8,486,617 (such as, e.g., Examples 1-5) and U.S. Pat. No. 8,097,403 (such as, e.g., Examples 1-3), and rehydrated by addition of sterile water. T-TAS® assays were run according to Example 3 using 3 μM rivaroxaban and different concentrations of thrombosomes (FIG. 10A, Table 8). The ‘No Riv’ vertical line indicates the approximate occlusion time of a sample with no added rivaroxaban.

Platelet rich plasma = assay: T-TAS flow system (collagen and tissue factor coated channel), rivaroxaban-treated platelet rich plasma; format: cell-based, human; conditions: 3 μM rivaroxaban (6.04 without)
Description: as §1
In a similar experiment, T-TAS® assays were run according to Example 3 with no rivaroxaban, 3 μM rivoroxaban, and 3 μM rivoroxaban and 300×10^3/μL thrombosomes. Platelet rich plasma that was treated with 3 μM rivaroxaban extended occlusion times from 6.04 to 26.01 minutes on the T-TAS® flow system (collagen and tissue factor coated channel).

heparinized plasma = assay: Thrombin generation assay in heparinized George King Plasma; format: biochemical, human; conditions: 2 U/mL heparin, 20 μg/mL protamine sulfate, thrombosomes 5K, 50K, 150K per μL
Description: Thrombosomes were prepared consistent with the procedures described in U.S. Pat. No. 8,486,617 (such as, e.g., Examples 1-5) and U.S. Pat. No.8,097,403 (such as, e.g., Examples 1-3), and rehydrated by addition of sterile water. aPTT and thrombin generation assays were performed as described in Example 3. […] The dashed line at approximately 70 seconds denotes the limit of abnormal aPTT and the second dashed line is the maximum time measured by the instrument (120 sec). Thrombin generation in heparin treated samples was also measured. […] The dashed line in FIGS. 23B and 23C denotes a typical thrombin peak value seen in this assay for control plasma.
The dashed line at approximately 70 seconds denotes the limit of abnormal aPTT and the second dashed line is the maximum time measured by the instrument (120 sec). Thrombin generation in heparin treated samples was also measured, with and without protamine sulfate. […] The dashed line in FIGS. 24B and 24C enotes a typical thrombin peak value seen in this assay for control plasma.

dabigatran treated PRP = conditions: dabigatran 100 ng/mL (18.89 untreated)
Description: • (1) Open CAT software; set up instrument; and prepare PRP reagent (including Tissue Factor and some phospholipids), calibrator, and fluoro-buffer according to manufacturer guidelines. • (2) Thaw warfarin or control plasma in 37° C. water bath for 5 minutes. • (3) Rehydrate thrombosomes with cell culture grade water for 10 minutes then dilute with Control Buffer to double target concentration. • (4) For each sample, combine 1:1 volumes of Control Buffer with or without thrombosomes and plasma. • (5) Using a multichannel pipette, add 20 μL of PRP reagent to each well. • (6) Add 80 μL of sample per well.

O=C(NC[C@H]1CN(c2ccc(N3CCOCC3=O)cc2)C(=O)O1)c1ccc(Cl)s1 [rivaroxaban]
AUC (whole blood; 1 uM rivaroxaban): 1686 kPa*min | Occ Spd (whole blood; 1 uM rivaroxaban): 20.9 kPa/min | AUC (whole blood; 3 uM rivaroxaban): 423 kPa*min | Occ Spd (whole blood; 3 uM rivaroxaban): 28.2 kPa/min | AUC (whole blood; 9 uM rivaroxaban): 13.6 kPa*min | occlusion and thrombus formation (whole blood; 9 μM rivaroxaban (a pharmacological dose)): inhibits occlusion but not all thrombus formation | occlusion time (Platelet rich plasma): 26.01 min

Protamine Sulfate
thrombosome-mediated thrombin generation after heparin reversal (heparinized plasma): Restores Thrombosome-Mediated Thrombin Generation

dabigatran
Time to peak (dabigatran treated PRP): 34.67 min
